What was measured:
[1] = target: Dual specificity protein kinase CLK3 (Homo sapiens, UniProt P49761); assay: Selectivity interaction (KinomeScan (DiscoverX)) EUB0000229b CLK3; conditions: at 10 µM
[2] = target: Ephrin type-A receptor 5 (Homo sapiens) (UniProt P54756); assay: Selectivity interaction (KinomeScan (DiscoverX)) EUB0000045b EPHA5
[3] = target: Maternal embryonic leucine zipper kinase (Homo sapiens) (UniProt Q14680); assay: Selectivity interaction (KinomeScan (DiscoverX)) EUB0000695a MELK; conditions: at 100 nM
[4] = target: Mitotic checkpoint serine/threonine-protein kinase BUB1 (Homo sapiens, UniProt O43683); assay: Selectivity interaction (KinomeScan (DiscoverX)) EUB0000666a BUB1; conditions: at 10 µM
[5] = target: T1, Serine/threonine-protein kinase Nek1 (Homo sapiens) (UniProt Q96PY6); assay: Selectivity interaction (KinomeScan (DiscoverX)) EUB0000666a NEK1; conditions: at 10 µM
T1 sequence (whole entry): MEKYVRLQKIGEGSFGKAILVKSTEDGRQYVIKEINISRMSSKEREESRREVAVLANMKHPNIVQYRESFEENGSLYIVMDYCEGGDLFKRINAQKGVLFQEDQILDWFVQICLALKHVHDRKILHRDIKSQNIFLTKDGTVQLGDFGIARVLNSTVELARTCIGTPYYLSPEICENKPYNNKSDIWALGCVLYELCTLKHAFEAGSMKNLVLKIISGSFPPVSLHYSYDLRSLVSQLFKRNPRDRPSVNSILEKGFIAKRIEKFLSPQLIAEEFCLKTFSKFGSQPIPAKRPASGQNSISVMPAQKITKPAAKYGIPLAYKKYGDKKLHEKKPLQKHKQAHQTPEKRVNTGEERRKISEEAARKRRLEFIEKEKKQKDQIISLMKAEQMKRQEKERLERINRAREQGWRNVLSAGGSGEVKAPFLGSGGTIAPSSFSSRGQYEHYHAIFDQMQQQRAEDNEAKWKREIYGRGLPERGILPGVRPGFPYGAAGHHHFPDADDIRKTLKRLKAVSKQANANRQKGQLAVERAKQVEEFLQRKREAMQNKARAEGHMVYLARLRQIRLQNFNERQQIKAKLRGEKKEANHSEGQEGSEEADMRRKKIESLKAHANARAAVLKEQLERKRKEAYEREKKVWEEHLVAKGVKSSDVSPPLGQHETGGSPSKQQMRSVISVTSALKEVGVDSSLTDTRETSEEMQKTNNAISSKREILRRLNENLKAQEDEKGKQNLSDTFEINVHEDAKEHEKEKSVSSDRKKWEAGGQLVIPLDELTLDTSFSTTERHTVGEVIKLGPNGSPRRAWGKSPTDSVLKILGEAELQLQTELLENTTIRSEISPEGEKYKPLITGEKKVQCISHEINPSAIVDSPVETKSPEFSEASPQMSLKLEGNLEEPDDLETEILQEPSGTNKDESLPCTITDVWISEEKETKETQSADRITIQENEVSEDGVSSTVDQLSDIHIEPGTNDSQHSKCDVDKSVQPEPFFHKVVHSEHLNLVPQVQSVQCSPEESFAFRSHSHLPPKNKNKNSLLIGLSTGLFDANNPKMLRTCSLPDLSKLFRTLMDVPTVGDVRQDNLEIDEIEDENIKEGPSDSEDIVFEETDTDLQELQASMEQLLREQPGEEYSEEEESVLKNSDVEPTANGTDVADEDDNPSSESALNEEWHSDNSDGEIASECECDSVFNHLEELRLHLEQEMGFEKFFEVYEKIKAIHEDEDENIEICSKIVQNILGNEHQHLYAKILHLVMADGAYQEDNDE

[6] = target: Serine/threonine-protein kinase pim-1 (Homo sapiens, UniProt P11309); assay: Selectivity interaction (Kinase screening (Nanosyn)) EUB0000604a PIM1
[7] = target: T2, Casein kinase I isoform alpha-like (Homo sapiens) (UniProt Q8N752); assay: Selectivity interaction (KinomeScan (DiscoverX)) EUB0001049a CSNK1A1L; conditions: at 1 µM
T2 sequence (whole entry): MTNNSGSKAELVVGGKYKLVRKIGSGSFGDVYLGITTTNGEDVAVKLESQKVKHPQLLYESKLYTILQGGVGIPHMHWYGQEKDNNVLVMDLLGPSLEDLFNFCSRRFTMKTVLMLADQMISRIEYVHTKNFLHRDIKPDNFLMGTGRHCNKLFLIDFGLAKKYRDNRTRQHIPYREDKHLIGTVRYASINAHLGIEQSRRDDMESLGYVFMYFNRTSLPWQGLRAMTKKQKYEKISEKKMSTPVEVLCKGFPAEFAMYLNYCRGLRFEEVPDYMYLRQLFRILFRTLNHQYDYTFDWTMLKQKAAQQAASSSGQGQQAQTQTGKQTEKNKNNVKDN

[8] = target: Platelet-derived growth factor receptor alpha (Homo sapiens, UniProt P16234); assay: Selectivity interaction (KinomeScan (DiscoverX)) EUB0001619a PDGFRA; conditions: at 1 µM
[9] = target: Angiopoietin-1 receptor (Homo sapiens) (UniProt Q02763); assay: Selectivity interaction (SelectScreen profiling (Invitrogen)) EUB0000607a TEK; conditions: at 2 µM
[10] = target: Leucine-rich repeat serine/threonine-protein kinase 2 (Homo sapiens, UniProt Q5S007); assay: Selectivity interaction (SelectScreen Kinase Profiling (Thermo Fisher Scientific)) EUB0001558a LRRK2; conditions: at 1 µM
[11] = target: STE20/SPS1-related proline-alanine-rich protein kinase (Homo sapiens) (UniProt Q9UEW8); assay: Selectivity interaction (KinomeScan (DiscoverX)) EUB0000618a STK39; conditions: at 10 µM
[12] = target: Casein kinase I isoform gamma-3 (Homo sapiens) (UniProt Q9Y6M4); assay: Selectivity interaction (KinomeScan (DiscoverX)) EUB0000618a CSNK1G3; conditions: at 10 µM
[13] = target: T3, Dual specificity mitogen-activated protein kinase kinase 6 (Homo sapiens) (UniProt P52564); assay: Selectivity interaction (Kinase panel (Invitrogen)) EUB0000639a MAP2K6; conditions: at 200 nM
T3 sequence (whole entry): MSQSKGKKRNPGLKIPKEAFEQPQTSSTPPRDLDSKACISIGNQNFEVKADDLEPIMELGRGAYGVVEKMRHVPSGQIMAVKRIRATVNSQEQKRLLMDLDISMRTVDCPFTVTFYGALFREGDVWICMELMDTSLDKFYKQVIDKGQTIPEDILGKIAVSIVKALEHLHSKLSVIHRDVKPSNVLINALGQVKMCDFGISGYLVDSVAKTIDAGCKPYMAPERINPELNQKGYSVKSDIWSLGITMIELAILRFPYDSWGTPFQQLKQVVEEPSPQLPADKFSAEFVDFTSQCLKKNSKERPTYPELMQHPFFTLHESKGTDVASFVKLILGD

[14] = target: Tyrosine-protein kinase JAK1 (Homo sapiens, UniProt P23458); assay: Selectivity interaction (ActivX KiNativ screen (kinase selectivity in THP-1 cell lysates)) EUB0000639a JAK1; format: subcellular; conditions: lysate, at 0.2 µM
[15] = target: Mitogen-activated protein kinase kinase kinase kinase 5 (Homo sapiens) (UniProt Q9Y4K4); assay: Selectivity interaction (KinomeScan (DiscoverX)) EUB0000655a MAP4K5; conditions: at 10 µM

Chain of Ephrin type-A receptor 5 (Homo sapiens) (P54756 whole entry): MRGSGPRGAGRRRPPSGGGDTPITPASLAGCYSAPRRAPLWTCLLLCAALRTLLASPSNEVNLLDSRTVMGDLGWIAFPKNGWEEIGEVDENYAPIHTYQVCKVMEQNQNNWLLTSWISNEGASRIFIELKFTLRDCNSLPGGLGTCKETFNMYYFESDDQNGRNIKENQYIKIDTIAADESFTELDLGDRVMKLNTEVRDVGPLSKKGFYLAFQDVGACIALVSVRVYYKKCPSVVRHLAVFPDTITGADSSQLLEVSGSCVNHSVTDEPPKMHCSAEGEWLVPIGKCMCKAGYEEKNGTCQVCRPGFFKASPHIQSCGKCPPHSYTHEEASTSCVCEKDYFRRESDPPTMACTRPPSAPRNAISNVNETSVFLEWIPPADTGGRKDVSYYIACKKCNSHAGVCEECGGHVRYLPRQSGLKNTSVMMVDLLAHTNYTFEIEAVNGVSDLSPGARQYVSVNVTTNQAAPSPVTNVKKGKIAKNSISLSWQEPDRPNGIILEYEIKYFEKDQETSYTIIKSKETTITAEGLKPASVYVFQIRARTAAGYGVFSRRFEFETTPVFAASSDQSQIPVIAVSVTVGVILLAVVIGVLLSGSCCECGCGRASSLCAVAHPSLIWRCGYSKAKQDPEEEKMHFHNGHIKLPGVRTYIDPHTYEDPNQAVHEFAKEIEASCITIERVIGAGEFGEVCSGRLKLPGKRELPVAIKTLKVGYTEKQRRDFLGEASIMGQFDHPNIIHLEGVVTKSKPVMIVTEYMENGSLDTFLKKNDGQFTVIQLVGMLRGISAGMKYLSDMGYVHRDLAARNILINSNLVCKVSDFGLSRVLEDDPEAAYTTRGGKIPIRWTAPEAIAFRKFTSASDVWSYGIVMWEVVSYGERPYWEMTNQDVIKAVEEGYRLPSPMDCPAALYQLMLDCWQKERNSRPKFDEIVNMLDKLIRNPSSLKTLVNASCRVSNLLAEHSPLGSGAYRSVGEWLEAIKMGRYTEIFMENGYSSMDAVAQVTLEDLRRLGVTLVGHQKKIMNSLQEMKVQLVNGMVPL
Chain of Maternal embryonic leucine zipper kinase (Homo sapiens) (Q14680 whole entry, looked up): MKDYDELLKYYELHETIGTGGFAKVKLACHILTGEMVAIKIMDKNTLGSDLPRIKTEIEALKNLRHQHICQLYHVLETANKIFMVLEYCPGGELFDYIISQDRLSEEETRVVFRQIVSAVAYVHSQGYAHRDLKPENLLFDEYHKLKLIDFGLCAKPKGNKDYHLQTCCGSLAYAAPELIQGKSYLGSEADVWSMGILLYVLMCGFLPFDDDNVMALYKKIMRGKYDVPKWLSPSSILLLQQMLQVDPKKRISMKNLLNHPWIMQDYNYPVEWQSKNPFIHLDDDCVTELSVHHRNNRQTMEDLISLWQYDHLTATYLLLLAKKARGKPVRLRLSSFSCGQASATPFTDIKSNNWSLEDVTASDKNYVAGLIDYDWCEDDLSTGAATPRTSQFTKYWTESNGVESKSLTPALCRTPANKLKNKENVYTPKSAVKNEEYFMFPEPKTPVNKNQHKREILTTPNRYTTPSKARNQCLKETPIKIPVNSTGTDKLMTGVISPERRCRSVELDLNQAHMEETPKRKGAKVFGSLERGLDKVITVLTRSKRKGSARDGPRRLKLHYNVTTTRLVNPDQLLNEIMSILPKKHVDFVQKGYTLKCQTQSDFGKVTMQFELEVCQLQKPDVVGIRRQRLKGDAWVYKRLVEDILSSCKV
Chain of Dual specificity protein kinase CLK3 (P49761 whole entry, looked up): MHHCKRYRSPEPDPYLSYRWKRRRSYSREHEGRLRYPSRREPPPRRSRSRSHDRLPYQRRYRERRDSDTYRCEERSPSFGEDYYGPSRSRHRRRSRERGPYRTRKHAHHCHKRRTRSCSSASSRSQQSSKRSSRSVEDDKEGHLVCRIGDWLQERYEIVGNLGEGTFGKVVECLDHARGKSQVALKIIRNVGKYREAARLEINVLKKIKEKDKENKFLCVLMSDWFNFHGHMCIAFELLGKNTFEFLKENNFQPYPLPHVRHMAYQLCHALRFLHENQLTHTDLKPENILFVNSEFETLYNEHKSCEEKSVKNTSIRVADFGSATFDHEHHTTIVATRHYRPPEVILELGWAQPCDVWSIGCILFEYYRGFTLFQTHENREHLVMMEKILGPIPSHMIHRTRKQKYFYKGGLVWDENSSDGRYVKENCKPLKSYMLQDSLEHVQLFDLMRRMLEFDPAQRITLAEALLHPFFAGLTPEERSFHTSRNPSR
Chain of Angiopoietin-1 receptor (Homo sapiens) (Q02763 whole entry): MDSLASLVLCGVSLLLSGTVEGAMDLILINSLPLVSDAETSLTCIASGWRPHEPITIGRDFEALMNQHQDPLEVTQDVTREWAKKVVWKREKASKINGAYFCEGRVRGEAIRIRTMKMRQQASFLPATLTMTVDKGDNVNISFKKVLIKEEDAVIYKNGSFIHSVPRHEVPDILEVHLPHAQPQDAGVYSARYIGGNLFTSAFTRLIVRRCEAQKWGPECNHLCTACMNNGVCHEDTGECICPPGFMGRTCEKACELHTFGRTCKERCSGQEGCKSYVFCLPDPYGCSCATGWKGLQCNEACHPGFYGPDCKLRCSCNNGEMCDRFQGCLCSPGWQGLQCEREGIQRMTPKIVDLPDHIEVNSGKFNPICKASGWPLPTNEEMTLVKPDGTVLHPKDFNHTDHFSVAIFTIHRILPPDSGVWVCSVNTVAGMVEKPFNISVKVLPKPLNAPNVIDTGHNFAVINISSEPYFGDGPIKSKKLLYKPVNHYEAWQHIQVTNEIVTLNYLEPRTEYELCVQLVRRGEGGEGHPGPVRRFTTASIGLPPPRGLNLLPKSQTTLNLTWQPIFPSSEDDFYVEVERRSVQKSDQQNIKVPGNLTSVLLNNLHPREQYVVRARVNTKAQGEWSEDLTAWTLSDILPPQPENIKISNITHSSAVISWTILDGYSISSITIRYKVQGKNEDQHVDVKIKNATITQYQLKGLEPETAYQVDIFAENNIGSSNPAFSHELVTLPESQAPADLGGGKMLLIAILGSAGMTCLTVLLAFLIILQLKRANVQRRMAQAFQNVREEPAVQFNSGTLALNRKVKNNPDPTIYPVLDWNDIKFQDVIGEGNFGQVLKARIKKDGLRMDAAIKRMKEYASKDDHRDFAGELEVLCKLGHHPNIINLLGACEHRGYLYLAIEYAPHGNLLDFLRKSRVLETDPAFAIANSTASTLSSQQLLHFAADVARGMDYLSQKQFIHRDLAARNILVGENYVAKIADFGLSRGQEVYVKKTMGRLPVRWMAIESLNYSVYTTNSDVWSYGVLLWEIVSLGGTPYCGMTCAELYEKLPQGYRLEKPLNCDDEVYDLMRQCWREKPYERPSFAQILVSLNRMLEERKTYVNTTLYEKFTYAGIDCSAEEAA
Chain of Casein kinase I isoform gamma-3 (Homo sapiens) (Q9Y6M4 whole entry, looked up, canonical isoform): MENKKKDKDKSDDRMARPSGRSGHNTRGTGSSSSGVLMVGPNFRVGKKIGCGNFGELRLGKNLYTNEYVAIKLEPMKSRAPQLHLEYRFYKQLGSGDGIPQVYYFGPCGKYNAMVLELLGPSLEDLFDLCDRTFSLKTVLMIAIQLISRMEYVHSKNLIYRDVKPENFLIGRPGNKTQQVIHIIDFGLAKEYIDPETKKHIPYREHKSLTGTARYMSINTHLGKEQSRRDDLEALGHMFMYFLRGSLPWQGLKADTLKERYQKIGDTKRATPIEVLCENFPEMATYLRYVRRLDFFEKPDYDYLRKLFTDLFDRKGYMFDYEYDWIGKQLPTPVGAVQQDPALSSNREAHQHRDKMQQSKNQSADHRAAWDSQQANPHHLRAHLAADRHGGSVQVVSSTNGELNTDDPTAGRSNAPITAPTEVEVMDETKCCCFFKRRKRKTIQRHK
Chain of Mitotic checkpoint serine/threonine-protein kinase BUB1 (O43683 whole entry, looked up): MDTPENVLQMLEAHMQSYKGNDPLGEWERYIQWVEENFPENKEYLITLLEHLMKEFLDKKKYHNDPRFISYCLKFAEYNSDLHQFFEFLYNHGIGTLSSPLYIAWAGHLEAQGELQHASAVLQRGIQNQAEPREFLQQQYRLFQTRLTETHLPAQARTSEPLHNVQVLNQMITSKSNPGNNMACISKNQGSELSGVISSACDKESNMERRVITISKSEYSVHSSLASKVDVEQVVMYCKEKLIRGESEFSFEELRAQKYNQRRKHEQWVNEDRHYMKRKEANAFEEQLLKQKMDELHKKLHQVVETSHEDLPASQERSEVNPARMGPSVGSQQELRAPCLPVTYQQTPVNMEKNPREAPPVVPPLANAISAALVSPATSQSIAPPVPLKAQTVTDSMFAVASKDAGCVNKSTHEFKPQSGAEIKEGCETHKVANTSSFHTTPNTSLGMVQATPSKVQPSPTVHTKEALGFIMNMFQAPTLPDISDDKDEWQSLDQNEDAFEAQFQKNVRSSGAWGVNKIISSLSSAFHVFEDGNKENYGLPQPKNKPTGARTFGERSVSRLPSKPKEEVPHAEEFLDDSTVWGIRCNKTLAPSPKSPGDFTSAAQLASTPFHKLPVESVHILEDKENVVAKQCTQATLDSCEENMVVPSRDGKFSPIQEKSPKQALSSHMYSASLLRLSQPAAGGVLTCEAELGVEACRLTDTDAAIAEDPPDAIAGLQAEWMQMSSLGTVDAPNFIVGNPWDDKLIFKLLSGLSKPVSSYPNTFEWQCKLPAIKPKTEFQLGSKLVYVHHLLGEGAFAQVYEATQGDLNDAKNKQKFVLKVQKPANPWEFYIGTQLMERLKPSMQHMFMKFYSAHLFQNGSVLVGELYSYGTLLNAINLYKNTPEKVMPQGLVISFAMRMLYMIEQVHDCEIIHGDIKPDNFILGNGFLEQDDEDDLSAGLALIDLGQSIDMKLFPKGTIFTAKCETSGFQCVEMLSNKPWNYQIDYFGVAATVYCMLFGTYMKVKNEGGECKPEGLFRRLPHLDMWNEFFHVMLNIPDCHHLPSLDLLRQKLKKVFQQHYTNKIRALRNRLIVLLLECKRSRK

COc1cc(N(C)c2ccnc3ccc(C(F)(F)F)cc23)cc(OC)c1OC
% binding [1]: 59%

C=CC(=O)Nc1cc(-n2c(=O)ccc3cnc4ccc(-c5ccc(NS(C)(=O)=O)cc5)cc4c32)ccc1C
% of control ([2]; at 1 µM): 100%
% of control ([2]; at 10 µM): 97%

Cc1cc(F)c(C(=O)Nc2cccc(-c3nncn3C(C)C)n2)cc1-n1cnc(C2CC2)c1
% of control [3]: 100%

O=C(NOC[C@H](O)CO)c1ccc(F)c(F)c1Nc1ccc(I)cc1F
% of control [4]: 100%
% of control [5]: 98%

Cc1cnc(Nc2ccc(F)cc2Cl)nc1-c1c[nH]c(C(=O)N[C@H](CO)c2cccc(Cl)c2)c1
% of inhibition [6]: 0%

COc1cc(Nc2nc(C)cc(-c3cnn4nc(OC)ccc34)n2)cc(C(F)(F)F)c1
% of control [7]: 100%

N#Cc1cccc(-c2c[nH]c3ncnc(N4CCOCC4)c23)c1
% of control [8]: 100%

CNC(=O)Nc1ccc(-c2nc(N3CC4CCC(C3)O4)c3cnn(C4CCC5(CC4)OCCO5)c3n2)cc1
% of inhibition [9]: 10%

CC(C)(O)[C@H](F)CN1Cc2cc(NC(=O)c3cnn4cccnc34)c(N3CCOCC3)cc2C1=O
% of inhibition [10]: 91.4%

O[C@H]1CC[C@H](Nc2ncc3nc(Nc4c(F)cc(F)cc4F)n([C@H]4CCOC4)c3n2)CC1
% of control [11]: 100%
% of control [12]: 100%

CC[C@@H]1[C@H](F)C(=O)N[C@@H]1COc1nccc2cc(C(N)=O)c(OC)cc12 [ZIMLOVISERTIB]
% of inhibition [13]: 14.8%
% of inhibition [14]: -7.3%

CN(C)CCOc1ccc(-c2nc(-c3ccncc3)c(-c3ccc4c(c3)CC/C4=N\O)[nH]2)cc1
% of control [15]: 97%
